From patent publication US7767671B2, “3-Quinolinecarbonitrile protein kinase inhibitors” (Wyeth, priority 2004, dated 2010)
Structures can show the parent of a compound that is named as a salt.

Key:
[1] = target: T1, Raf and/or Mek kinase (human c-Raf, GST-MEK1) (Homo sapiens, UniProt P04049+Q02750); assay: Raf/Mek kinase cascade assay; type: biochemical; conditions: c-Raf dependent activation of GST-MEK and GST-MAPK, phospho-MAPK ELISA; (a)/(b)/(c) = average of two/three/four runs
T1 construct: Sf9 insect cell lysate containing full length 6his-tagged recombinant human c-Raf; 6His; host or cells: Sf9 insect cells (c-Raf, used as lysate); E. coli (MEK1-GST, GST-MAPK)
Experimental: Raf/Mek Kinase Cascade Assay Procedure
(Specific Activity: ˜200 U/ml). Human Non-active Mek-1-GST and human GST-MAP kinase (recombinant proteins produced in E. coli).
Stock Solutions Raf/Mek Cascade Assay:
• 1. Assay Dilution Buffer (ADB): 20 mM MOPS, pH 7.2, 25 mM β-glycerol phosphate, 5 mM EGTA, 1 mM sodium orthovanadate, 1 mM dithiothreitol; • 2. Magnesium/ATP Cocktail: 500 μM cold ATP and 75 mM magnesium chloride in ADB; • 3. Active Kinase: Human Active c-Raf: Use at 0.4 U per assay point; • 4. Non-active GST-MEK1: Use at 0.1 μg per assay point; and • 5. Non-active GST-p42 MAP Kinase: Use at 1.0 μg per assay point. Stock Solutions ELISA: • 1. TBST-Tris (50 mM, pH 7.5), NaCl (150 mM), Tween-20 (0.05%); • 2. Superblock (Pierce); • 3. Anti-GST Ab (Pharmacia); • 4. Anti-Phospho MAPK (Sigma); and • 5. Anti-Mouse Ab/Europium conjugate (Wallac). Assay Procedure: First Stage: c-Raf Dependent Activation of GST-MEK and GST-MAPK • 1. Add […] of ADB per assay (i.e. per well of a 96 well plate); • 2. Add 10 ml of 0.5 mM cold ATP and 75 mM magnesium chloride in ADB; • 3. Add 2 ml of c-Raf (0.4 U/assay), in conjunction with 1.6 ml non-active MEK1 (0.4 […]/assay); • 4. Add 4 ml of non-active GST-p42 MAP Kinase (1.0 mg/assay); • 5. Incubate for 60 minutes at 30° C. in a shaking incubator; • 6. Transfer this mixture to an anti-GST Ab coated 96 well plate (Nunc Immunosorb plates coated o/n with a-GST, then blocked with Pierce Superblock); • 7. Incubate for 60 minutes at 30° C. in a shaking incubator; • 8. Wash 3× with TBST, add Anti-Phospho MAPK (Sigma) (1:3000); • 9. Incubate for 60 minutes at 30° C. in a shaking incubator; • 10. Wash 3× with TBST, add Anti-Mouse Ab/Europium conjugate (Wallac) (1:500); • 11. Incubate for 60 minutes at 30° C. in a shaking incubator; • 12. Wash 3× with TBST, Read plates in Wallac Victor model Plate Reader; and • 13. Collect data analyze in Excel for single point and IC50 determinations.
Single point assay—% inhibition at […] (% Inhibition=1−cpd·treated sample/untreated control). IC50 determinations—done on compounds from single point assays with >80% inhibition. Typically, the Raf/Mek assay is run at compound concentrations from 10 μM to 1 nM in half log dilutions. (% inhibition is determined for each compound concentration). The results obtained measure Raf and/or Mek kinase inhibition, and for representative compounds of this invention are listed in Table 1.

LoVo = assay: Cell based screen for inhibitors of Raf and/or Mek kinase (SRB), LoVo; parameters: species or system human; conditions: LoVo cells, four days incubation, (a)/(b)/(c) = average of two/three/five runs
Experimental: (§1) Cell Based Screen for Inhibitors of Raf and/or Mek Kinase. Materials
Cell Lines: Human adenocarcinoma cell line LoVo, known to be growth inhibited by low nM concentrations of a reference standard inhibitor of Ras and human adenocarcinoma cell line CaCo-2, known to be growth resistant to the same reference compound.
Cell Media: RPMI 1640 with 10% Fetal Bovine Serum supplemented with L-glutamine and Penicillin/Streptomycin.
(§2) Cells are plated at 2000 cells per well for cell line LoVo and 1500 cells for cell line CaCo-2 in 96 well plates. Cells are plated in media (200 μl) and allowed to adhere overnight at 37° C. At 24 hours post plating, compounds are added directly at a volume of 0.5 μl. For the qualitative screen (compounds screened at 25 μM) compound is added directly to cells. For the quantitative screen, compound is first diluted in DMSO to generate concentrations of compound or reference standard of: 1, 5, 10 and 25 μM. It is advisable to make the dilutions in an identical 96 well plate so that compounds can be added using a multichannel micropipettor set at 0.5 μl. The cells are then incubated for four days after which the media is removed using a 12 well manifold by first tipping the plate forward at a 45 degree angle and then inserting the manifold in an upright orientation to prevent the tips of the manifold from disturbing cells at the bottom of the plate. 200 μl of normal saline is then added to each well using an 8 well multichannel pipettor, followed by the careful addition of 50 μl of 50% TCA. The plates are then incubated for 2 hours at 4° C., after which the supernatant is removed using the same technique as above and the plated cells are washed twice with 200 μl water. The plates are then air dried and 50 μl of SRB stock solution is carefully added so that the entire bottom of each well is covered. This again can be done using an 8 well multichannel pipettor. The SRB is incubated with fixed cells for 15 minutes at room temperature after which the SRB is removed with the manifold as described above and the plates washed twice with 350 μl of 1% acetic acid per well each time. The plates are then air dried after which the bound SRB is released from protein by the addition of 200 μl of Tris base. Resolubilizing the SRB is aided by placing the plates on a rotator for 15-30 minutes. The absorbance of each well is determined at 550 or 562 nm using a microtiter plate reader.
(§3) Each compound or dilution thereof is performed in triplicate. Outliers are identified by visual inspection of the data. Each plate should have a “0” control (vehicle only).
(§4) Quantitative Assay: A standard curve is constructed by plotting the concentration of compound against the average absorbance calculated at that concentration. A curve is plotted and the concentration at which the curve passes through the 50% the absorbance mark seen in the “0” control well is the IC50 calculated for that compound. Multiple entries for a given compound indicate that it is tested multiple times.

BxPC3 = assay: Cell based screen for inhibitors of Raf and/or Mek kinase (SRB), BxPC3; conditions: Homo sapiens, BXPC-3, BxPC3 cells, (a)/(b) = average of two/three runs
Experimental: [The procedure below names another cell line; the source lists this cell line under the same test.] as §1, §2, §3, §4

T1 sequence (P04049 whole entry): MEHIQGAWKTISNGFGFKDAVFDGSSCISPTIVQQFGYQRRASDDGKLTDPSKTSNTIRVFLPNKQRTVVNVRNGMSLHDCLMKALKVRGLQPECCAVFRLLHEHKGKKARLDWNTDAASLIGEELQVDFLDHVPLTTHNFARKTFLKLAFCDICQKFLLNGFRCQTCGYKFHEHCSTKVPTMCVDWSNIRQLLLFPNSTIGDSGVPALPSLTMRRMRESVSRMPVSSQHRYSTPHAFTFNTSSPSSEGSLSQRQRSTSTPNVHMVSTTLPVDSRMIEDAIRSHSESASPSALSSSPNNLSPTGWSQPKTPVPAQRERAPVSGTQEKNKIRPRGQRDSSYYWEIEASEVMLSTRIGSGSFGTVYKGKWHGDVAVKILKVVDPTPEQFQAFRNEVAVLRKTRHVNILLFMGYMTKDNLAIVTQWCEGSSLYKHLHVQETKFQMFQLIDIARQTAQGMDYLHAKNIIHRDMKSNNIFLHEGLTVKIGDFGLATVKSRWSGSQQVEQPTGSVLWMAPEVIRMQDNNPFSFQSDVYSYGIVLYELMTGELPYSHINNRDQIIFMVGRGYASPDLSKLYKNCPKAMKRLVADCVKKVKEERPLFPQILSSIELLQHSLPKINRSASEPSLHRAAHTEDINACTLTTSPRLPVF
T1 sequence (Q02750 whole entry): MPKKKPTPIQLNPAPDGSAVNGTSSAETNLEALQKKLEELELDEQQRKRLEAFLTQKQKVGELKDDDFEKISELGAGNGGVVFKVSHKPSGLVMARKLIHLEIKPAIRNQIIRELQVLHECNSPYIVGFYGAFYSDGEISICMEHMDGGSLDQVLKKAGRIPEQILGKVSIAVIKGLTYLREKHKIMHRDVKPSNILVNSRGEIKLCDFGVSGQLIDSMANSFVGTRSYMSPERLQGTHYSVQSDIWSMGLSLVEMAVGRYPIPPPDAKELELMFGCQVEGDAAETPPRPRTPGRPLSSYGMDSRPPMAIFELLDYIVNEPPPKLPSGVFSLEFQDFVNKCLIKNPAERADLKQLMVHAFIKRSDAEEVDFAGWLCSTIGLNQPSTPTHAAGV

melting point | IC50 [1] [nM] | IC50 (LoVo; Homo sapiens, 96 h) [nM] | IC50 (BxPC3) [nM] | IC50 (LoVo) [nM] | SMILES
232 to 235 °C |  |  |  |  | N#Cc1c[nH]c2cc(N3CCC(N4CCCC4)CC3)c([N+](=O)[O-])cc2c1=O [Example 24, 6-Nitro-4-oxo-7-(4-pyrrolidin-1-ylpiperidin-1-yl)-1,4-dihydroquinoline-3-carbonitrile]
251 to 253 °C | 188 | 474 |  |  | COc1cc2c(Nc3ccc(Sc4nccn4C)c(Cl)c3)c(C#N)cnc2cc1N1CCN(CCn2ccnc2)CC1 [Example 23, 4-({3-Chloro-4-[(1-methyl-1H-imidazole-2-yl)thio]phenyl}amino)-7-{4-[2-(1H-imidazole-1-yl)ethyl]piperazin-1-yl}-6-methoxyquinoline-3-carbonitrile]
245 to 247 °C | 2390 | 14 | 8 |  | CC(=O)N(C(C)=O)c1cc2c(Nc3ccc(Sc4nccn4C)c(Cl)c3)c(C#N)cnc2cc1N1CCC(N2CCCC2)CC1 [Example 28, N-Acetyl-N-[4-[3-chloro-4-(1-methyl-1H-imidazole-2-ylsulfanyl)-phenylamino]-3-cyano-7-(4-pyrrolidin-1-yl-piperidin-1-yl)quinolin-6-yl]acetamide]
 | 210 | 460 | 1400 |  | COc1ccccc1Oc1ccc(Nc2c(C#N)cnc3cc(N4CCC(N5CCCC5)CC4)c(OC)cc23)cc1 [Example 12, 6-Methoxy-4-{[4-(2-methoxyphenoxy)phenyl]amino}-7-(4-pyrrolidin-1-ylpiperidin-1-yl)quinoline-3-carbonitrile, trifluoroacetate salt]
196 to 198 °C | 3 | 47 | 49 |  | COc1cc2c(Nc3ccc(Sc4nccn4C)c(Cl)c3)c(C#N)cnc2cc1OCCCN1CCC(N2CCCC2)CC1 [Example 33, 4-{3-Chloro-4-[(1-methyl-1H-imidazole-2-yl)sulfanyl]anilino}-6-methoxy-7-{3-[4-(1-pyrrolidinyl)-1-piperidinyl]propoxy}-3-quinolinecarbonitrile]
243 to 255 °C | 1640 | 4 | 8 |  | CC(=O)Nc1cc2c(Nc3ccc(Sc4nccn4C)c(Cl)c3)c(C#N)cnc2cc1N1CCC(N2CCCC2)CC1 [Example 29, N-[4-({3-Chloro-4-[(1-methyl-1H-imidazole-2-yl)thio]phenyl}amino)-3-cyano-7-(4-pyrrolidin-1-ylpiperidin-1-yl)quinolin-6-yl]acetamide]
125 to 130 °C | 35 | 9 | 30 |  | Cn1ccnc1Sc1ccc(Nc2c(C#N)cnc3cc(N4CCC(N5CCCC5)CC4)ccc23)cc1Cl [Example 16]
238 to 241 °C | 320 | 31 |  |  | COCCOc1cc2c(Nc3ccc(Sc4nccn4C)c(Cl)c3)c(C#N)cnc2cc1N1CCC(N2CCCC2)CC1 [Example 17, 4-({3-Chloro-4-[(1-methyl-1H-imidazole-2-yl)thio]phenyl}amino)-6-(2-methoxyethoxy)-7-(4-pyrrolidin-1-ylpiperidin-1-yl)quinoline-3-carbonitrile]
 | 199 |  |  | 8 | COc1cc2c(Nc3ccc(Sc4nccn4C)c(Cl)c3)c(C#N)cnc2cc1N1CCC(N2CCCCC2)CC1 [Example 19]
127 to 130 °C |  |  |  |  | COc1cc2c(Nc3ccc(Sc4nccn4C)c(Cl)c3)c(C#N)cnc2cc1OCCN1CCC(N2CCCC2)CC1 [Example 36, 4-{3-Chloro-4-[(1-methyl-1H-imidazole-2-yl)sulfanyl]anilino}-6-methoxy-7-{2-[4-(1-pyrrolidinyl)-1-piperidinyl]ethoxy}-3-quinolinecarbonitrile]
220 to 230 °C |  |  |  |  | Cn1ccnc1Sc1ccc(Nc2c(C#N)cnc3cc(N4CCC(N5CCCC5)CC4)c([N+](=O)[O-])cc23)cc1Cl [Example 26, 4-({3-Chloro-4-[(1-methyl-1H-imidazole-2-yl)thio]phenyl}amino)-6-nitro-7-(4-pyrrolidin-1-ylpiperidin-1-yl)quinoline-3-carbonitrile]
219 to 221 °C | 181 | 20 |  |  | COc1cc2c(Nc3ccc(Sc4nccn4C)c(Cl)c3)c(C#N)cnc2cc1N1CCC(N2CCOCC2)CC1 [Example 21, 4-({3-Chloro-4-[(1-methyl-1H-imidazole-2-yl)thio]phenyl}amino)-6-methoxy-7-(4-morpholin-4-ylpiperidin-1-yl)quinoline-3-carbonitrile]
265 to 267 °C |  |  |  |  | Cn1ccnc1Sc1ccc(Nc2c(C#N)cnc3cc(N4CCC(N5CCCC5)CC4)c(N)cc23)cc1Cl [Example 27, 6-Amino-4-[3-chloro-4-(1-methyl-1H-imidazole-2-ylsulfanyl)phenylamino]-7-(4-pyrrolidin-1-yl-piperidin-1-yl)quinoline-3-carbonitrile]
255 to 265 °C (dec.) |  |  |  |  | N#Cc1cnc2cc(N3CCC(N4CCCC4)CC3)c([N+](=O)[O-])cc2c1Cl [Example 25, 4-chloro-6-nitro-7-(4-pyrrolidin-1-ylpiperidin-1-yl)quinoline-3-carbonitrile]
220 to 226 °C | 273 | 80 |  |  | COc1cc2c(Nc3ccc(Sc4nccn4C)c(Cl)c3)c(C#N)cnc2cc1N1CCN(C2CCN(C)CC2)CC1 [Example 22, 4-({3-Chloro-4-[(1-methyl-1H-imidazole-2-yl)thio]phenyl}amino)-6-methoxy-7-[4-(1-methylpiperidin-4-yl)piperazin-1-yl]quinoline-3-carbonitrile]
